In patent US10308959B2, “Methods, systems, and compositions relating to MiRNA-146a” (Henry Ford Health System, priority 2013, dated 2019):

System: diabetic mice (db/db mice)
Assay: Diabetic peripheral neuropathy in type II diabetic mice (db/db)
Format: in vivo, mouse
Description: DRG neurons play an important role in sensory conduction. Diabetic peripheral neuropathy is characterized by the loss and/or degeneration of neurons and the slowing of nerve conduction velocities. Using a mouse model of type II diabetes which develops severe peripheral neuropathy, we measured miR-146a expression in DRG neurons. […] FIG. 5H is quantitative data of caspase 3 positive cells. FIGS. 5I and J are neurological function measured by motor nerve conduction velocity (MCV, FIG. 5I) and sensory nerve conduction velocity (“SCV”, FIG. 5J). Red, blue, and black lines represent non-diabetic mice, diabetic mice treated with saline, and diabetic mice treated with sildenafil, respectively. *P<0.01 versus the nondiabetic group. #P<0.05 versus the diabetic group treated with saline. n=10/group. […] Elevation of miR-146a in DRG neurons by sildenafil rescued diabetes-induced DRG neuron death and improved neurological outcomes (FIG. 5).

[1] = diabetic mice treated with sildenafil

CCCc1nn(C)c2c(=O)[nH]c(-c3cc(S(=O)(=O)N4CCN(C)CC4)ccc3OCC)nc12 [sildenafil]
diabetes-induced DRG neuron death (caspase 3 positive cells) [1]: rescued
miR-146a in DRG neurons [1]: Elevation
neurological outcomes (MCV, SCV) (diabetic mice treated with sildenafil vs saline): improved
